Measurements taken from US20240100013A1, “SOTAGLIFLOZIN FOR IMPROVING LEFT ATRIAL FUNCTION” (CHARITÉ-UNIVERSITÄTSMEDIZIN BERLIN, priority 2021, published 2024).

Legend:
LA cardiomyocytes [1] = assay: Spontaneous SR Ca2+ release events (SCaEs) of isolated LA cardiomyocytes; assay type: cell-based, rat; settings: HFpEF LA cardiomyocytes after chronic treatment
Text: Cardiomyocyte isolation. LA and LV cardiomyocytes were isolated using enzymatic digestion as previously described in detail. See Bode D, Guthof T, Pieske B M, Heinzel F R, Hohendanner F: “Isolation of Atrial Cardiomyocytes from a Rat Model of Metabolic Syndrome-related Heart Failure with Preserved Ejection Fraction,” J Vis Exp 2018(137).
Solutions and chemicals. Chemicals were obtained from Sigma-Aldrich (St. Louis, MO, USA) unless noted otherwise. The dual SGLT1/2 inhibitor sotagliflozin was provided by Lexicon Pharmaceuticals (The Woodlands, TX, USA). Fluorescent dyes Fura-2 AM, Rhod-2 AM, MitoTracker red, MitoTracker green, TMRE and H2-DCF were obtained from Thermo Fisher Scientific (Waltham, MA, USA). Tyrode solution contained (in mM): 130 NaCL, 4 KCl, 2 CaCl, 1 MgCl2, 10 Glucose, 10 HEPES; pH adjusted to 7.4 with NaOH. LA cardiomyocytes were plated on laminin-coated glass coverslips. 20 mM caffeine was added to Tyrode solution to induce sarcoplasmic reticulum (SR) Ca^2+ release and obtain a measure of SR Ca^2+ content. […]
Ca^2+ measurements and sarcomere shortening. Radiometric Ca^2+ measurements (excitation: 340 nm and 385 nm, emission: 510±10 nm; [Ca^2+] expressed as the ratio R=F340/F380) were performed either with a CytoCypher MultiCell System (CytoCypher BV, Netherlands; FIGS. 1C-F, 2D-G, 4A-F) or an Axiovert 200 microscope (Zeiss, Oberkochen, Germany) fluorescence imaging assembly (FIGS. 2A-C, 2H-J, 3A-E, 6E-I). […] Experiments were conducted at 37° C. and CaT were recorded at steady state (following electric stimulation).
CaT and sarcomere shortening of LA and LV cardiomyocytes were recorded for 10 s at 3 Hz stimulation. See FIGS. 2D-G, 4A-F. Electric stimulation was turned off and spontaneous SR Ca^2+ release events (See Voigt N, Heijman J, Wang Q, Chiang D Y, Li N, Karck M, Wehrens X H T, Nattel S, Dobrev D: “Cellular and molecular mechanisms of atrial arrhythmogenesis in patients with paroxysmal atrial fibrillation,” Circulation 2014, 129(2):145-156) (SCaEs) immediately recorded for a duration of 10 s (FIG. 1C-F). […]

LA cardiomyocytes [2] = assay: Mitochondrial depolarization (TMRE) in LA cardiomyocytes; assay type: cell-based, rat; settings: differences between groups
Experimental: Mitochondrial depolarization. LA cardiomyocytes were loaded with TMRE and MitoTracker green, transferred to an LSM 800 laser scanning microscope and kept in Tyrode's solution containing 2 mM Ca^2+ and 10 nM TMRE. Two-dimensional images of TMRE (excitation: 561 nm, emission: 565-585 nm) and MitoTracker green fluorescence (excitation: 488 nm, emission: 505-525 nm) were acquired for a duration of 6 min (interval: 2 s, resolution: 512×512 px, pixel size: 1.25 μm, pixel time: 1.03 μs, laser intensity: 4%). A binary mask of both channels was derived using a Bernsen thresholding algorithm (ImageJ). Positive pixels of the MitoTracker green image were defined as mitochondria and a positive overlay of the TMRE image assumed to indicate a polarized state. The standard deviation of polarized mitochondria over time was taken as a measure of spatiotemporal oscillation.

Structure (SMILES): CCOc1ccc(Cc2cc([C@@H]3O[C@H](SC)[C@@H](O)[C@H](O)[C@H]3O)ccc2Cl)cc1 [sotagliflozin, (2S,3R,4R,5S,6R)-2-(4-chloro-3-(4-ethoxybenzyl)phenyl)-6-(methylthio)tetrahydro-2H-pyran-3,4,5-triol]
- amplitude of SCaEs (LA cardiomyocytes [1]): significantly reduced
- SCaE event frequency (LA cardiomyocytes [1]; non-stimulated interval after 3 Hz): remained unaltered
- incidence and spatial distribution of mitochondrial depolarizations (LA cardiomyocytes [2]): could not be detected
